Assay results published in patent US12630527B2, “Broad spectrum anti-cancer compounds” (The Regents of the University of California, priority 2019, dated 2026).
“Also recorded” adds a separate entry of the source.

Experiments:
GBM-GSC-23 = assay: Tumorosphere (neurosphere) formation assay, GBM-GSC-23; type: cell-based, human; conditions: 20 μM, 2 days, listed as FTO-04
[1] = test system: TS576 glioblastoma stem cells; assay: Tumorosphere (neurosphere) formation assay, TS576; type: cell-based, human; conditions: 2 days
Protocol: (§1) To understand the effects of our FTO inhibitors on the self-renewal properties of GSCs, tumorospheres cultured from the patient-derived GSC line TS576 were treated with 30 μM of FTO-04, FTO-10, FTO-11, or FTO-12 (FIG. 29A-29B; cell line gifted from the Furnari lab).^45, 46 The GSCs were cultured in sphere-forming assays for 24 hours, then treated with either inhibitors or DMSO control for 2 days. The size of the tumorospheres was calculated using ImageJ.
(§2) Early passaged GSCs were used to understand the efficacy of ALK-04 on the self-renewal capacity of GSCs by tumorsphere-formation assay as described earlier^10, 11. In brief, GSCs were seeded at 4×10^4 cells in 24 well plate and cultured for 3 days followed by treatment with ALK-04 inhibitors at 20 μM daily for 3 days. After 3 days of treatment the images of the tumorospheres were imaged with phase contrast microscope and size was measured with Image J, to understand the effects of drugs on the self-renewal of GSCs on sphere formation. This process was also repeated for healthy neural stem cells (hNSCs) treated daily with 20 μM ALK-04 for three days to assess the therapeutic ratio.

[2] = test system: m6A mRNA levels in TS576 cells; assay: m6A dot blot assay on poly(A)+ mRNA; type: cell-based, human; conditions: vs DMSO control, does not distinguish m6A and m6Am
Protocol: Next, we sought to determine if FTO-04 was able to alter m6A levels in purified mRNA from GSCs by m6A dot blot assay. TS576 cells were treated with 2, 10, and 50 ng shControl or shFTO to establish the relative change in m6A mRNA levels due to FTO knockdown. […] TS576 cells were then treated with 2, 10, and 50 ng of either DMSO or FTO-04 (FIG. 59B).
Polyadenylated mRNA were isolated from TS576 cells treated with either DMSO, FTO-04 (30 μM), and control (shControl) or FTO lentivirus (shFTO) knockdown samples by using Magnetic mRNA Isolation Kit (New England Biolabs, S1550S). Isolated mRNA was quantified, serially diluted and denatured at 95° C. for 3 min, then chilled on ice to prevent reformation of secondary structure of mRNA. Denatured mRNA samples were spotted on an Amersham Hybond-N^+ membrane (GE Healthcare, RPN3050B) and cross-linked to the membrane with UV radiation. After crosslinking the membrane was washed with phosphate buffer saline with 0.1% tween-20 (PBST) and blocked in 5% of non-fat milk in PBST buffer, and then incubated with anti-m^6A antibody (1:1000; abcam) overnight at 4° C. The membrane was then washed as before and incubated in HRP-conjugated secondary antibodies for 1 h at room temperature. The membrane was then developed with Thermo ECL SuperSignal West Femto Maximum Sensitivity Substrate (Thermo Fisher Scientific).

GBM-6 = assay: Tumorosphere (neurosphere) formation assay, GBM-6; type: cell-based, human; conditions: GBM-6, 20 μM, 2 days; listed as FTO-04
FTO [3] = target: T1, FTO (Homo sapiens, UniProt Q9C0B1); assay: Steady-state (Michaelis-Menten) inhibition kinetics, FTO; type: biochemical; conditions: velocity and double-reciprocal plots; 0-40 μM inhibitor, 0-10 μM substrate; listed as FTO-04
T1 construct: SUMO (N); His10 (N); made in house; host or cells: E. coli BL21
T1 sequence (Q9C0B1 whole entry): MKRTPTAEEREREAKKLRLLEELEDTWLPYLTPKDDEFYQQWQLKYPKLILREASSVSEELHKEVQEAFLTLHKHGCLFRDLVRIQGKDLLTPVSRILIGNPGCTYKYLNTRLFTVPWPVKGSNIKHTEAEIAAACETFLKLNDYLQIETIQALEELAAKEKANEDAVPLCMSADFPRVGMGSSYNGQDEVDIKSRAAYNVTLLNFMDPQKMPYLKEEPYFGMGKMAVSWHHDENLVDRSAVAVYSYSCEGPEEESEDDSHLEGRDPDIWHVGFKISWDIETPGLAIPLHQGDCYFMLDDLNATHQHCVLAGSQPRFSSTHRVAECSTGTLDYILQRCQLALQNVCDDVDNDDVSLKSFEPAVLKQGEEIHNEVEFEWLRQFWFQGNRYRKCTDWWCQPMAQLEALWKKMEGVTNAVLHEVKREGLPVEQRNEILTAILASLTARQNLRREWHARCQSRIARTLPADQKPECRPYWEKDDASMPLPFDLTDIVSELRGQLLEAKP

FTO [4] = target: T1, FTO; assay: Fluorescence enzymatic inhibition assay (m6A7-Broccoli / DFHBI-1T), FTO; type: biochemical; conditions: fold more potent than MA (IC50=12.5)
Protocol: In order to determine their efficacy as FTO inhibitors, the compounds were screened by a fluorescence enzymatic inhibition assay developed previously by the Jaffrey lab.^44 Briefly, a nonfluorescent methylated RNA substrate termed “m6A7-Broccoli” is incubated with FTO in the presence of 2-oxoglutarate (300 μM), (NH4)2Fe(SO4)2·6H2O (300 μM), and L-ascorbate (2 mM) for 2 hours at room temperature in reaction buffer (50 mM NaHEPES, pH 6).
E. coli BL21 competent cells (New England Biolabs) were transformed with pET28-SUMO-His10-FTO plasmid (a generous gift from the Jaffrey lab) by heat shock and spread on a LB Kanamycin agar plate, then incubated overnight at 37° C. 2-3 colonies were picked and transferred to 5 mL of LB media treated with kanamycin (0.5 mg mL^−1 final concentration), then grown overnight shaking at 37° C. The overnight culture was then transferred to 2 L of LB kanamycin media and incubated at 37° C. until OD 0.8. The culture was cooled at 4° C. for 20 mins and induced with 0.5 mM isopropyl β-D-1-thiogalactopyranoside (IPTG), then grown shaken at 16° C. Cell pellets were collected by centrifugation (5,000 g for 10 min at 4° C.) and the supernatant was discarded. The pellets were resuspended in B-PER Bacterial Protein Extraction Reagent (6 mL per gram) with DNase 1 (5 U per mL, RNase-free) and incubated at 4° C. for 1 hour. The suspension was centrifuged at 10,000 g for 20 min and the supernatant was transferred to a Talon Metal Affinity Resin column that had been pre-equilibrized with binding buffer (50 mM NaH2PO4 pH 7.2, 300 mM NaCl, 20 mM imidazole, 1 mM β-mercaptoethanol in RNase-free water). […] The eluant was combined and transferred to a Slyde-A-Lyzer Dialysis Cassette (20,000 MWCO, Thermo Scientific) and dialyzed overnight at 4° C. against dialysis buffer (50 mM Tris-HCl pH 7.4, 100 mM NaCl, 5 mM B-mercaptoethanol, 5% (v/v) glycerol in RNase-free water). […] ALKBH5 was expressed and purified from pET28-SUMO-His10-ALKBH5 plasmid by the same procedure described above.
Inhibitors were added in concentrations ranging from 0.008-40 μM; all inhibitors were dissolved in DMSO and added to a final concentration of 0.2% DMSO. […] After incubation at room temperature for 2 hours, the plates were left at 4° C. overnight (16 hours) to allow DFHBI-1T to bind to A7-Broccoli RNA. […] Sigmoidal dose-response curves were fitted in GraphPad Prism 6. All assays were performed in triplicate, with additional repetitions added as necessary.

[5] = test system: human neural stem cells (hNSC); assay: Neurosphere formation assay, healthy neural stem cells; type: cell-based; conditions: healthy neural stem cells (hNSCs), 20 μM; listed as FTO-04
Protocol: as §1, §2

NCI-H520 = assay: High Throughput Screen for growth inhibition, NCI-H520; type: cell-based; conditions: NCI-H520, LUSC; 3 days; unit not given
Protocol: (§3) The High Throughput Screen method is described below. The endpoint readout of this assay is based upon quantitation of ATP as an indicator of viable cells.
(§4) Cell lines that have been preserved in liquid nitrogen are thawed and expanded in growth media (see Table 1-3). Once cells have reached expected doubling times, screening begins. Cells are seeded in growth media in black 384-well tissue culture treated plates at 500-1500 cells per well (as noted in Analyzer). Cells are equilibrated in assay plates via centrifugation and placed at 37° C. 5% CO2 for twenty-four hours before treatment. […] Assay plates are incubated with compound for 3 days and are then analysed using CellTiter-Glo 2.0. All data points are collected via automated processes and are subject to quality control and analysed using Horizon's software.
(§5) Growth Inhibition (GI) is utilized as a measure of cell growth. The GI percentages are calculated by applying the following test and equation: If T<V_0: 100*(1−(T−V_0)/V_0) If T≥V_0: 100*(1−(T−V_0)/(V−V_0)) where T is the signal measure for a test article, V is the untreated/vehicle-treated control measure, and Vo is the untreated/vehicle control measure at time zero (also colloquially referred as T0 plates). This formula is derived from the Growth Inhibition calculation used in the National Cancer Institute's NCI-60 high throughput screen. […]

Kasumi-1 = assay: High Throughput Screen for growth inhibition, Kasumi-1; type: cell-based; conditions: Kasumi-1, Leukemia; 3 days; unit not given
Protocol: as §3, §4, §5

AGS = assay: High Throughput Screen for growth inhibition, AGS; type: cell-based; conditions: Gastric, 3 days, unit not given
Protocol: as §3, §4
(§6) Growth Inhibition (GI) is utilized as a measure of cell growth. The GI percentages are calculated by applying the following test and equation: If T<V_0: 100*(1−(T−V_0)/V_0) If T≥V_0: 100*(1−(T−V_0)/(V−V_0)) where T is the signal measure for a test article, V is the untreated/vehicle-treated control measure, and Vo is the untreated/vehicle control measure at time zero (also colloquially referred as T0 plates). This formula is derived from the Growth Inhibition calculation used in the National Cancer Institute's NCI-60 high throughput screen. For the purposes of this report, all data analysis was performed in Growth Inhibition (except where noted).
(§7) A GI of 100% represents complete growth inhibition (cytostasis) and in this case cells treated with compound for 3 days would have the same endpoint reading as TO control cells. A GI of 200% represents complete death (cytotoxicity) of all cells in the culture well and in this case the T reading at 3 days will be lower than the TO control (values near or at zero).
(§8) Horizon also provides Inhibition as a measure of cell viability. Inhibition levels of 0% represent no inhibition of cell growth by treatment. Inhibition of 100% represents no doubling of cell numbers during the treatment window. Both cytostatic and cytotoxic treatments can yield an Inhibition percentage of 100%. Inhibition percentage is calculated as the following: I=1−T/U where T is the treated and U is the untreated/vehicle control.

SUM159PT = assay: High Throughput Screen for growth inhibition, SUM159PT; type: cell-based; conditions: Breast, 3 days, unit not given
Protocol: as §3, §4, §5

MOLT-4 = assay: High Throughput Screen for growth inhibition, MOLT-4; type: cell-based; conditions: MOLT-4, Leukemia; 3 days; unit not given
Protocol: as §3, §4, §6, §7, §8

LUDLU-1 = assay: High Throughput Screen for growth inhibition, LUDLU-1; type: cell-based; conditions: LUDLU-1, LUSC; 3 days; unit not given
Protocol: as §3, §4, §6, §7
(§9) Horizon also provides Inhibition as a measure of cell viability. Inhibition levels of 0% represent no inhibition of cell growth by treatment. […] Inhibition percentage is calculated as the following: I=1−T/U where T is the treated and U is the untreated/vehicle control.

MC-F7 = assay: High Throughput Screen for growth inhibition, MC-F7 (MCF7); type: cell-based; conditions: MC-F7, Breast (luminal); 3 days; unit not given
Protocol: as §3, §4, §5

Panc 04 03 = assay: High Throughput Screen for growth inhibition, Panc 04 03; type: cell-based; conditions: Panc 04 03, Pancreatic; 3 days; unit not given
Protocol: as §3, §4, §5

Ishikawa = assay: High Throughput Screen for growth inhibition, Ishikawa; type: cell-based; conditions: Endometrial (uterine), 3 days, unit not given
Protocol: as §3, §4, §5

A549 = assay: High Throughput Screen for growth inhibition, A549; type: cell-based; conditions: A549, lung adenocarcinoma; 3 days; unit not given
Protocol: as §3, §4, §5

MV4-11 = assay: High Throughput Screen for growth inhibition (CellTiter-Glo 2.0), MV4-11; type: cell-based; conditions: MV4-11, Leukemia; 3 days with compound; unit not given
Protocol: as §3, §4, §5

SW480 = assay: High Throughput Screen for growth inhibition, SW480; type: cell-based; conditions: SW480, Colon; 3 days; unit not given
Protocol: as §3, §4, §5

HEC-50B = assay: High Throughput Screen for growth inhibition, HEC-50B; type: cell-based; conditions: Endometrial (uterine), 3 days, unit not given
Protocol: as §3, §4, §5

SKOV-3 = assay: High Throughput Screen for growth inhibition, SKOV-3; type: cell-based; conditions: SKOV-3, Ovarian; 3 days; unit not given
Protocol: as §3, §4, §5

PECAPJ15 = assay: High Throughput Screen for growth inhibition, PECAPJ15; type: cell-based; conditions: PECAPJ15, Head and Neck; 3 days; unit not given
Protocol: as §3, §4, §5

HCT-116 = assay: High Throughput Screen for growth inhibition, HCT-116; type: cell-based; conditions: HCT-116, Colon; 3 days; unit not given
Protocol: as §3, §4, §5

BICR16 = assay: High Throughput Screen for growth inhibition, BICR16; type: cell-based; conditions: BICR16, Head and Neck; 3 days; unit not given
Protocol: as §3, §4, §6, §7, §9

Pancreatic = conditions: read-out: EC50 of chemo SOC; cited from earlier work

In the case of COc1ncc(-c2ccc3nc(N)sc3c2)cn1 [FTO-4, 6-(2-methoxypyrimidin-5-yl)benzo[d]thiazol-2-amine], the size of tumorospheres (GBM-GSC-23) is reported as “inhibits GSC neurospheres formation; also recorded: significantly decrease the size of tumorospheres”, the size of tumorospheres ([1]; TS576, 20 μM, listed as FTO-04) is reported as “inhibits GSC neurospheres formation; also recorded: significantly decrease the size of tumorospheres” and the size of tumorospheres ([1]; TS576, 30 μM, vs vehicle control) is reported as “significant reduction in size of the tumorospheres”. For the same compound, the “m6A mRNA levels” value [2] was “increase m6A mRNA levels significantly compared to DMSO control”, the size of tumorospheres (GBM-6) was “inhibits GSC neurospheres formation; also recorded: significantly decrease the size of tumorospheres” and the “mechanism of inhibition of FTO” value (FTO [3]) was “competitive inhibitor; also recorded: competitive mechanism of inhibition”. The “potency against FTO relative to MA” value (FTO [4]) was “approximately 4” and the neurosphere size [5] was “without impairing hNSC neurosphere growth; also recorded: no alteration in neurosphere size”.
In the case of CN(Cc1ccc(C(F)(F)F)cc1)c1ccc(CNC2CC2)cn1 [TR-YTH-10], the “Growth Inhibition (GI) Values” (NCI-H520) is reported as 24.266, the “Growth Inhibition (GI) Values” (Kasumi-1) is reported as 10.784 and the “Growth Inhibition (GI) Values” (AGS) is reported as 21.842. For the same compound, the “Growth Inhibition (GI) Values” (SUM159PT) was 56.597, the “Growth Inhibition (GI) Values” (MOLT-4) was 14.304 and the “Growth Inhibition (GI) Values” (LUDLU-1) was 20.311. The “Growth Inhibition (GI) Values” (MC-F7) was 24.642, the “Growth Inhibition (GI) Values” (Panc 04 03) was 28.024 and the “Growth Inhibition (GI) Values” (Ishikawa) was 22.531. For the same compound, the “Growth Inhibition (GI) Values” (A549) was 24.437, the “Growth Inhibition (GI) Values” (MV4-11) was 23.158 and the “Growth Inhibition (GI) Values” (SW480) was 25.275. The “Growth Inhibition (GI) Values” (HEC-50B) was 37.217, the “Growth Inhibition (GI) Values” (SKOV-3) was 25.341 and the “Growth Inhibition (GI) Values” (PECAPJ15) was 44.646. For the same compound, the “Growth Inhibition (GI) Values” (HCT-116) was 21.453 and the “Growth Inhibition (GI) Values” (BICR16) was 12.966.
For Nc1ccn([C@@H]2O[C@H](CO)[C@@H](O)C2(F)F)c(=O)n1 [gemcitabine], the EC50 (Pancreatic) is given as less than 1 µM.
